Experimental data taken from patent US20240025908A1, “COMPOUND USED AS KINASE INHIBITOR AND USE THEREOF” (TYK MEDICINES, INC., priority 2020, published 2024).
Where two headings read alike, the source gives them in different places.

Legend:
ROS1 (G2032R) = ROS1 (G2032R) (Homo sapiens (Human), UniProt P08922, G2032R); assay: Radio-tagged HotSpot kinase assay, ROS1 (G2032R); assay type: biochemical
Description: (§1) Inhibition of protein kinase activity by compounds was carried out on the Radio-tagged HotSpot kinase experimental platform of Reaction Biology Corporation. Fresh reaction solution (20 mM TIEPESpH 7.5, 10 mM MgCl2, 1 mM EGTA, 0.02% Brij35, 0.02 mg/ml BSA, 0.1 mM Na3VO4, 2 mM DTT, […]) containing corresponding substrates was prepared, cofactor and kinase to be tested were added into the above solution and mixed gently. Echo550 pipetting system was used to add the test compound DMSO solution to each well (the blank control group was added with the corresponding volume of DMSO), then 33P-ATP (with a final specific activity of 0.01 μCi/μL) was added to start the reaction. The reaction solution was incubated at room temperature for 120 minutes. Transferred the incubated reaction solution to P81 ion exchange chromatographic paper (Whatman #3698-915), eluted with […] phosphoric acid solution, and the amount of radioactive phosphorylated substrate remaining on the chromatographic paper was detected.

Ba/F3-CD74-ROS1-G2032R = assay: Inhibition of cell proliferation (CellTiter-Glo), Ba/F3-CD74-ROS1-G2032R; assay type: cell-based; conditions: 72 hours
Description: (§2) The experiment of inhibiting cell proliferation by compounds was carried out in Hefei Zhongkeprecedo Biomedical Technology Co., Ltd. The Ba/F3 engineered cell line stably transfected with different kinase genes was recovered with RPMI 1640 medium (Biological Industries, Israel)+10% fetal bovine serum (Biological Industries, Israel)+1% double antibody (Penicillin Streptomycin solution, Coring, USA) and cultivated two generations. The logarithmic growth phase cell suspension was taken, and 2000 cells/well were inoculated on 96-well white cell culture plate (Corning 3917, NY, USA) with a volume of 95 μL per well. 5 μL of 20×DMSO solution of the compound to be tested was added into the culture plate containing 95 μL of cell suspension. The blank control group was added with corresponding volume of DMSO, mixed well, and incubated in a 5% CO2 incubator at 37° C. for 72 hours. CellTiter-Glo was used to detect cell viability.

TRKA (G677C) = TRKA (G677C) (Homo sapiens, UniProt P04629, G667C); assay: Radio-tagged HotSpot kinase assay, TRKA (G677C); assay type: biochemical
Description: as §1

Ba/F3-TEL-ALK-G1202R = assay: Inhibition of cell proliferation (CellTiter-Glo), Ba/F3-TEL-ALK-G1202R; assay type: cell-based; conditions: 72 hours
Description: as §2

Ba/F3-LMNA-NTRK1-G595R = assay: Inhibition of cell proliferation (CellTiter-Glo), Ba/F3-LMNA-NTRK1-G595R; assay type: cell-based; conditions: 72 hours
Description: as §2

ALK (G1202R) = ALK (G1202R) (Homo sapiens (Human), UniProt Q9UM73, G1202R); assay: Radio-tagged HotSpot kinase assay, ALK (G1202R); assay type: biochemical
Description: as §1

ALK = ALK (Homo sapiens (Human), UniProt Q9UM73); assay: Radio-tagged HotSpot kinase assay, ALK; assay type: biochemical
Description: as §1

ROS1 = ROS1 (Homo sapiens (Human), UniProt P08922); assay: Radio-tagged HotSpot kinase assay, ROS1; assay type: biochemical
Description: as §1

TRKA = TRKA (Homo sapiens (Human), UniProt P04629); assay: Radio-tagged HotSpot kinase assay, TRKA; assay type: biochemical
Description: as §1

[1] = test system: Ba/F3-CD74-ROS1-G2032R cells; assay: In vivo efficacy study, subcutaneous Ba/F3-CD74-ROS1-G2032R tumor; design: species or system BALB/c nude mice; conditions: 20 mg/kg P.O. BID × 2 weeks
Description: Cell culture: Ba/F3-CD74-ROS1-G2032R cell line was cultured with 1640 medium (Biological Industries)+10% fetal bovine serum (BI)+1% double antibody (Penicillin Streptomycin solution, Corning, USA) at 37° C. with 5% CO2. Two passages were performed for one week. When the cell saturation was 80%-90% and the number reached the required level, the cells were collected, counted and inoculated.
Animals: BALB/c nude mice, female, 6-8 weeks of age, weighing 15-20 g. A total of 6 mice were required, provided by Beijing Vital River Laboratory Animal Technology Co., Ltd.
Tumor inoculation: 0.2 ml (2×10^6) Ba/F3-CD74-ROS1-G2032R cells (plus stromal gel, volume ratio 1:1) were inoculated subcutaneously on the right posterior dorsum of each mouse, and group dosing was started when the average tumor volume reached about 150-200 mm^3.
Experimental index: Tumor volume and body weight were measured twice a week. Tumor volume was measured by vernier calipers with the formula TV=0.5 a×b2, wherein a is the long diameter of the tumor and b is the short diameter of the tumor.

[2] = read-out: TRKA (G677C) (IC50/nM)

TRKA, sequence (P04629 33-796): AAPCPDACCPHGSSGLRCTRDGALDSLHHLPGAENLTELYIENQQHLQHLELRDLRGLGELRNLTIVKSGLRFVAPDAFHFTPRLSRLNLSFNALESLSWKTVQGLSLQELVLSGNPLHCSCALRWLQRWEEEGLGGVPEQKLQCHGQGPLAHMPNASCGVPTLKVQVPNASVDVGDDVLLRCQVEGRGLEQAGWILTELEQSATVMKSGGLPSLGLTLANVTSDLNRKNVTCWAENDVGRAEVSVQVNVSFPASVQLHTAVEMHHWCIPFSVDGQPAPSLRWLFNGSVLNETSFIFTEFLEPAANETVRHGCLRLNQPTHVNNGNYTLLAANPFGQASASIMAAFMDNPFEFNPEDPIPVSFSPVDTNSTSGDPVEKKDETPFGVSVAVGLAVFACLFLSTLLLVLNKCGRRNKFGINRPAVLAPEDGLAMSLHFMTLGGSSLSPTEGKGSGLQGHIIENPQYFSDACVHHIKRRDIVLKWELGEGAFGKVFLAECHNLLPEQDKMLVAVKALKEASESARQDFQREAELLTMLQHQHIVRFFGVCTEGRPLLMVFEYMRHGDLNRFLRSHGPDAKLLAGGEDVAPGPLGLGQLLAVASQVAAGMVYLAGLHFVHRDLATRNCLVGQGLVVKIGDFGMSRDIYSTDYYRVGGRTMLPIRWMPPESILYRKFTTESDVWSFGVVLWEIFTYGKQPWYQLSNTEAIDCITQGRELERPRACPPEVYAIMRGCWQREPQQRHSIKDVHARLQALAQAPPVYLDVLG
ROS1, sequence (P08922 28-2347): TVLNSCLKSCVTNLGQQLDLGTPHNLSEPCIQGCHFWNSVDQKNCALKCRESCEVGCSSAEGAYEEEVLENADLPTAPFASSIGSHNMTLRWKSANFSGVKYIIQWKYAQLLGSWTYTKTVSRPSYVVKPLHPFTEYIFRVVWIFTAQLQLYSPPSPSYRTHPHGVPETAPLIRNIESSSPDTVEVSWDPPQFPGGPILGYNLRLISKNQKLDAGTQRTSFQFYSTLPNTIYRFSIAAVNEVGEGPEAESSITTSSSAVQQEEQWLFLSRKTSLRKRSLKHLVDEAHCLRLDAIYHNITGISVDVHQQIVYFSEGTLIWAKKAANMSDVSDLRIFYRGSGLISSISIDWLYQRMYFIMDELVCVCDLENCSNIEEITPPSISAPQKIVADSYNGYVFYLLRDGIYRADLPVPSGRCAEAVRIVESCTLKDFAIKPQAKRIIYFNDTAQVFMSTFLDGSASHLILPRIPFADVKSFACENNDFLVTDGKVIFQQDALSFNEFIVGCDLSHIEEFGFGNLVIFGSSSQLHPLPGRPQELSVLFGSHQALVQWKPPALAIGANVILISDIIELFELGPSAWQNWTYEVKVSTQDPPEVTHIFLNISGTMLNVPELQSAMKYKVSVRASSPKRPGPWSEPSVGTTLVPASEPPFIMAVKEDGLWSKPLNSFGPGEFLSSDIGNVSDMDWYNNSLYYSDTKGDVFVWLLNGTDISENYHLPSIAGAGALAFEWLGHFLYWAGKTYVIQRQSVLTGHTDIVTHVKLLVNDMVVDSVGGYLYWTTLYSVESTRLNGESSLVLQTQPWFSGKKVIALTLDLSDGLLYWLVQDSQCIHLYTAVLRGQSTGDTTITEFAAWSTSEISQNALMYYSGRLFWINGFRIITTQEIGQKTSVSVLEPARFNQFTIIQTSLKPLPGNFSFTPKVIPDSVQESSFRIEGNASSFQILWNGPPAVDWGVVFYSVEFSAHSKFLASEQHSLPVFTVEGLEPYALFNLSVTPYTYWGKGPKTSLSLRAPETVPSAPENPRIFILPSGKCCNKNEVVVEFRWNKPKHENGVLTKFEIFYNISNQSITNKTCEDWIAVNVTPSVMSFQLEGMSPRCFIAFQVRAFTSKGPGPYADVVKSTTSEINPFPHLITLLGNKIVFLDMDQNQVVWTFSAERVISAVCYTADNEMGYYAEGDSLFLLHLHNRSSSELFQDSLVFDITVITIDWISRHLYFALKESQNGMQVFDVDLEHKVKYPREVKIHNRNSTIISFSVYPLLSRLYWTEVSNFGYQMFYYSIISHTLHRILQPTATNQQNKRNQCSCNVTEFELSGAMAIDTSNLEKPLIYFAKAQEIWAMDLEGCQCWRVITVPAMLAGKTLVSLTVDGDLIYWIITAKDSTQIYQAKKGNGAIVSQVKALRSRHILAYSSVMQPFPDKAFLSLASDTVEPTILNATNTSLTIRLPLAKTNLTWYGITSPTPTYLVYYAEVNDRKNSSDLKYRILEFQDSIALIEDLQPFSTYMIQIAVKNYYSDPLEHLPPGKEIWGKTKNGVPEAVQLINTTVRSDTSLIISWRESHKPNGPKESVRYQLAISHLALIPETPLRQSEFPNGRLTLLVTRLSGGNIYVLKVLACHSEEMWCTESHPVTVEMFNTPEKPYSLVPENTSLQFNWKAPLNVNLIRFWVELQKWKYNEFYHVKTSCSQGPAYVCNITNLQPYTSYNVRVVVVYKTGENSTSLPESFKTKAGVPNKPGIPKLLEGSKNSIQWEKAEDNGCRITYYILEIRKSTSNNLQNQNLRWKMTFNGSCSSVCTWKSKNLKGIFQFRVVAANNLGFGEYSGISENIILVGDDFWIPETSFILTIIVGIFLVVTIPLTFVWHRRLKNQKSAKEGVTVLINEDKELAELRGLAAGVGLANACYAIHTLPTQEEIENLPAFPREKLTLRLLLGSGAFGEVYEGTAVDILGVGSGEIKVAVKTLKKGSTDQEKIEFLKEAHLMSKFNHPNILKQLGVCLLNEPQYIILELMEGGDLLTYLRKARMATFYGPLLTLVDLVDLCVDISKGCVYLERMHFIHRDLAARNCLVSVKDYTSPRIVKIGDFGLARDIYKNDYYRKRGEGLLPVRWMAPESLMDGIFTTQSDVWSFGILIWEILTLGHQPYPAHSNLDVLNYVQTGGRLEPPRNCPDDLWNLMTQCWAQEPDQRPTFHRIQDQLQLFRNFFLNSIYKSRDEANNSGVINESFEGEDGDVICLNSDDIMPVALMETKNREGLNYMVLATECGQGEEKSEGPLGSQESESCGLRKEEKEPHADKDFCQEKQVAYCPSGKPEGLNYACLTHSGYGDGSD
TRKA (G677C), sequence (P04629 33-796 G667C limits assumed): as the sequence (P04629 33-796) above, with G635C counted along it
ALK (G1202R), sequence (Q9UM73 19-1620 G1202R): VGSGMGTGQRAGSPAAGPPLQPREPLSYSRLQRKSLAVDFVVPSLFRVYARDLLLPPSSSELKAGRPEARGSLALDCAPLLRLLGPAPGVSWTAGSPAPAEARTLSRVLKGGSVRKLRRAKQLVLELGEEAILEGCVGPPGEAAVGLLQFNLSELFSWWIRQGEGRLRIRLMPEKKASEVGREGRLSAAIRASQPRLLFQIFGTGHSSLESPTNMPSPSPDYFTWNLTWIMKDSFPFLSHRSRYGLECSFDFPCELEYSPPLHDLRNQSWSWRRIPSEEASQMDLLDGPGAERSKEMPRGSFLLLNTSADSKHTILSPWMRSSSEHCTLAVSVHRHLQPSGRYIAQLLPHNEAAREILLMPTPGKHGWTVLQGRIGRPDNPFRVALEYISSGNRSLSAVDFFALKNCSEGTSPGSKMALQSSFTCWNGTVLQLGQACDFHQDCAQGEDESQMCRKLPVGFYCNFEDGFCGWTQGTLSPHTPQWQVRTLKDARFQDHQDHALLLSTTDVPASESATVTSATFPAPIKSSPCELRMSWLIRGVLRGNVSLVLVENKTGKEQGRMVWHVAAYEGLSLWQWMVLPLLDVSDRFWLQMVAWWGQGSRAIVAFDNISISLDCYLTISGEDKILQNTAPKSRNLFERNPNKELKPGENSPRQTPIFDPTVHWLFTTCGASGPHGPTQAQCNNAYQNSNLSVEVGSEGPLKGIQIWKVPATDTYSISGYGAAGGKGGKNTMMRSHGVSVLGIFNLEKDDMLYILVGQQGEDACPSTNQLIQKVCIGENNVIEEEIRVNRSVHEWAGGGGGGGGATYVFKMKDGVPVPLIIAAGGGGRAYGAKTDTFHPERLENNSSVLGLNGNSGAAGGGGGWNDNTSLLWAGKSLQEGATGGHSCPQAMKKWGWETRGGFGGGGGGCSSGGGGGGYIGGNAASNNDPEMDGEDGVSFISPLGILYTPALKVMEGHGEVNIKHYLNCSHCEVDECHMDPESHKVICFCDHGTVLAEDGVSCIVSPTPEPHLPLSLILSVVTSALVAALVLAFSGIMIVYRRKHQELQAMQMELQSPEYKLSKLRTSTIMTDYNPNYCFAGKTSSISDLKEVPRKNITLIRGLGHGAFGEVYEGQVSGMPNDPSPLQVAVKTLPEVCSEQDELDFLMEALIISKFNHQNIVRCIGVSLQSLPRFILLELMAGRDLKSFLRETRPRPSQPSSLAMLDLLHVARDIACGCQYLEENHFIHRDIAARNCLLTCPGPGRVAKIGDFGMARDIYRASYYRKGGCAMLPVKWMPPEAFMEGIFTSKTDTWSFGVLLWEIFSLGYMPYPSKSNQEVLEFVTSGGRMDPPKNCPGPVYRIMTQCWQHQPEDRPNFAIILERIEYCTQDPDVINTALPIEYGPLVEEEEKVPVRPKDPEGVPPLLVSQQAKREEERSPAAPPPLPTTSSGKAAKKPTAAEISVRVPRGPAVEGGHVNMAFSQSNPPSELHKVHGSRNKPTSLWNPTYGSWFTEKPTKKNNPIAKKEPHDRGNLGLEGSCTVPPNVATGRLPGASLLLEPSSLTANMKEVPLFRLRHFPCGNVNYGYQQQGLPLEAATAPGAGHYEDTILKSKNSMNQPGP
ROS1 (G2032R), sequence (P08922 28-2347 G2032R): as the sequence (P08922 28-2347) above, with G2005R counted along it
ALK, sequence (Q9UM73 19-1620): as the sequence (Q9UM73 19-1620 G1202R) above, with R1184G counted along it

Structure (SMILES)	IC50 (ROS1 (G2032R)) [nM]	IC50 (ALK (G1202R)) [nM]	IC50 (ALK) [nM]	IC50 (ROS1) [nM]	IC50 (TRKA) [nM]	IC50 (TRKA (G677C); [2]) [nM]	IC50 (Ba/F3-CD74-ROS1-G2032R) [nM]	IC50 (TRKA (G677C)) [nM]	IC50 (Ba/F3-TEL-ALK-G1202R) [nM]	IC50 (Ba/F3-LMNA-NTRK1-G595R) [nM]	Tumor Volume ([1]; 0 days) [mm^3]	Tumor Volume ([1]; 4 days) [mm^3]	Tumor Volume ([1]; 7 days) [mm^3]	Tumor Volume ([1]; 11 days) [mm^3]	Tumor Volume ([1]; 14 days) [mm^3]
C[C@@H](Nc1ccn2ncc(C3=NOCCN3)c2n1)c1cc(F)ccc1OC(F)(F)F [Example 26]	0.5 to 5	5 to 50	0.5 to 5	< 0.5	< 0.5		35.2	0.5 to 5	100	11.2					
C[C@@H](Nc1ccn2ncc(C3=NOCCN3)c2n1)c1cc(F)ccc1C(F)(F)F [Example 27]	50 to 500	50 to 500	5 to 50	0.5 to 5	0.5 to 5	50 to 500									
CCCOC(=O)/N=C(\N)c1cnn2ccc(N[C@H](C)c3cc(F)cc(F)c3F)nc12 [Example 11]	5 to 50	50 to 500	50 to 500	0.5 to 5	0.5 to 5	5 to 50									
C[C@@H](Nc1ccn2ncc(C(=O)NOCCO)c2n1)c1cc(F)cc(F)c1F [Example 13]	50 to 500	50 to 500	50 to 500	5 to 50	5 to 50	50 to 500									
C[C@@H](Nc1ccn2ncc(C3=NOCCN3)c2n1)c1cc(F)cc(C(F)(F)F)c1F [Example 19]	5 to 50	50 to 500	5 to 50	0.5 to 5	0.5 to 5	5 to 50									
C[C@@H](Nc1ccn2ncc(C3=NN=CC(C)(C)N3)c2n1)c1cc(F)cc(F)c1F [Example 5]	5 to 50	5 to 50	5 to 50	0.5 to 5	0.5 to 5	5 to 50									

Further lines, with some results ahead:

IC50 (ROS1 (G2032R)) [nM]	IC50 (ALK (G1202R)) [nM]	IC50 (ALK) [nM]	IC50 (ROS1) [nM]	IC50 (TRKA) [nM]	IC50 (TRKA (G677C); [2]) [nM]	Structure (SMILES)	IC50 (Ba/F3-CD74-ROS1-G2032R) [nM]	IC50 (TRKA (G677C)) [nM]	IC50 (Ba/F3-TEL-ALK-G1202R) [nM]	IC50 (Ba/F3-LMNA-NTRK1-G595R) [nM]	Tumor Volume ([1]; 0 days) [mm^3]	Tumor Volume ([1]; 4 days) [mm^3]	Tumor Volume ([1]; 7 days) [mm^3]	Tumor Volume ([1]; 11 days) [mm^3]	Tumor Volume ([1]; 14 days) [mm^3]
0.5 to 5	5 to 50	0.5 to 5	< 0.5	< 0.5	0.5 to 5	C[C@@H](Nc1ccn2ncc(C3=NOCC(C)(C)N3)c2n1)c1cc(F)cc(F)c1F [Example 4]					167.31	216.42	292.24	375.67	688.91
< 0.5	5 to 50	0.5 to 5	< 0.5	< 0.5	< 0.5	C[C@@H](Nc1ccn2ncc(C3=NOCCN3)c2n1)c1cc(F)ccc1OC(F)F [Example 9]	31.6		75.6	6.1					
5 to 50	50 to 500	50 to 500	0.5 to 5	0.5 to 5	5 to 50	C[C@@H](Nc1ccn2ncc(OC3=NCC(C)(C)N3)c2n1)c1cc(F)cc(F)c1F [Example 15]									
0.5 to 5	50 to 500	5 to 50	< 0.5	< 0.5	0.5 to 5	C[C@@H](Nc1ccn2ncc(C3=NC(=O)C(C)(C)N3)c2n1)c1cc(F)cnc1OCC(F)(F)F [Example 23]									
0.5 to 5	5 to 50	0.5 to 5	< 0.5	< 0.5	0.5 to 5	C[C@@H](Nc1ccn2ncc(C3=NC(=O)C(C)(C)N3)c2n1)c1cc(F)ccc1OC(F)(F)F [Example 21]									
0.5 to 5	5 to 50	0.5 to 5	< 0.5	< 0.5	0.5 to 5	C[C@@H](Nc1ccn2ncc(C3=NC(=O)C(C)(C)N3)c2n1)c1cc(F)cnc1OC(F)(F)F [Example 25]									
0.5 to 5	5 to 50	0.5 to 5	< 0.5	< 0.5	0.5 to 5	COc1c(F)cc(F)cc1[C@@H](C)Nc1ccn2ncc(C3=NC(=O)C(C)(C)N3)c2n1 [Example 20]									
